Test results as given in patent US12349973B2 (priority 2019, dated 2025).

Key:
[1] = tested on: pupil light response / muscarinic receptors within the iris; set-up: species or system human; conditions: in vivo
[2] = tested on: muscarinic receptors within the eye; conditions: in vivo; cited from earlier work
[3] = target: human iris muscarinic receptors; conditions: cited from earlier work
[4] = tested on: accommodation control system / ciliary body muscarinic receptors; conditions: in vivo

Row | SMILES | baseline difference in pupil size [1] [mm] | estimated level of receptor blockade 1-(V400post/V400pre) [1] [%] | peak difference in pupil constriction (light response) [1] [mm] | duration of effects [2] [days] | duration of pupil dilatation and paralysis of accommodation [2] | apparent dissociation constant KA [3] [nM] | ability to accommodate ([4]; human) | mean increase in the AC/A ratio over baseline [4] [%] | receptoral blockade suggested by AC/A increase [4] [%]
1 | CN1[C@@H]2CC[C@H]1C[C@@H](OC(=O)C(CO)c1ccccc1)C2 (stereo partly drawn) [atropine] | 0.6 | 35 | 1.6 | 6 to 12 | up to 7 days | 0.4 to 0.7 | – | – | –
2 | CN(C)CCOC(=O)C(c1ccccc1)C1(O)CCCC1 (stereo not drawn) [cyclopentolate] | – | – | – | – | – | – | maintained the ability to accommodate sufficiently to read at 33 cm | 173 | 42
